Test results published in patent US20180055844A1 (Celgene Corporation, priority 2011, published 2018).
“And” between values parts separate entries of the source, which are not always exact repeats. Equal entries are not always repeated. “Also recorded” adds a separate entry of the source. Where two headings read alike, the source gives them in different places.

Assays:
1053 = experiment: Activity against lenalidomide resistant cell lines; assay type: cell-based; settings: 1053, n = 3; read-out: IC50
Method: (§1) The ability of compounds to effect the proliferation of MM cell lines was investigated in an in vitro study. Uptake of [^3H]-thymidine by H929 MM cells and 7-AAD uptake in several MM cell lines (H929, U266B1, Anbl-6, KMS-34, OPM-2, DF-15, DF15/R, CAG, MM1.S and LP-1) was measured as an indicator of cell proliferation. Cells were incubated in the presence of compounds for 72 hours ([^3H]-thymidine was included for the last 6 hours of the incubation period) or 5 days followed by 7-AAD uptake to measure and count viable cells.

1051 = experiment: Activity against lenalidomide resistant cell lines; assay type: cell-based; settings: 1051, n = 3; read-out: IC50
Method: as §1

D1 = experiment: Activity against lenalidomide resistant cell lines; assay type: cell-based; settings: D1, n = 3; read-out: IC50
Method: as §1

H929 = experiment: Activity against lenalidomide resistant cell lines; assay type: cell-based; settings: Homo sapiens, NCI-H929; H929, n = 3
Method: as §1

1052 = experiment: Activity against lenalidomide resistant cell lines; assay type: cell-based; settings: 1052, n = 3; read-out: IC50
Method: as §1

1054 = experiment: Activity against lenalidomide resistant cell lines; assay type: cell-based; settings: 1054, n = 3; read-out: IC50
Method: as §1

B cell = B cell proliferation; assay type: cell-based
U251 = experiment: Solid tumor cell colony formation; assay type: cell-based; settings: Homo sapiens, U-251
[1] = test system: lipopolysaccharide-stimulated human peripheral blood mononuclear cells (hPBMCs); experiment: PBMC cytokine profiling; assay type: cell-based; settings: for IC50: LPS-stimulated hPBMC
SF-295 = experiment: Invasion of solid tumor cells; assay type: cell-based; settings: Homo sapiens; SF-295 (PDGF), glioblastoma
Oral pharmacokinetics [2] = assay type: in vivo; settings: SCID mouse
SF268 = experiment: Solid tumor cell colony formation; assay type: cell-based; settings: Homo sapiens, SF-268
[3] = test system: MM cell lines U266, 100-1 and 1K-2; experiment: Proliferation of CRBN-sensitive MM cell lines; assay type: cell-based
[4] = Stability in human plasma; assay type: in vitro ADME; settings: read-out: t1/2 in human plasma
U87 GB xenograft = U87 GB xenograft model; assay type: in vivo; settings: 3 and 30 mg/kg qd
Oral pharmacokinetics [5] = assay type: in vivo; settings: Cyno monkey
TNFα = experiment: WB TNFα; assay type: cell-based; settings: Homo sapiens; whole blood
Colo-205 = experiment: Solid tumor cell colony formation; assay type: cell-based; settings: Homo sapiens
PC-3 = experiment: Solid tumor cell colony formation; assay type: cell-based; settings: Homo sapiens
T cells = experiment: Anti-CD3-stimulated human T cell assay, cytokine production; assay type: cell-based
Method: T cells were isolated from buffy coat by negative selection using the RosetteSep® T Cell Enrichment Cocktail. The manufacturer's procedures were followed accordingly. All 96-well plates were pre-coated with 3 μg/ml anti-human CD3 antibody in 100 μl 1×PBS for 4 hours at 37° C. The plates were washed three times with RPMI-1640 Complete Media prior to the T cell assay. T cells were then plated in CD3 pre-coated plates at a density of 2.5×10^5 cells/well in 180 μl RPMI-1640 Complete Media. The cells were treated with 20 μl 10× titrated compounds at 10, 1, 0.1, 0.01, 0.001, 0.0001 and 0.00001 μM. Final DMSO concentrations were 0.25%. The plates were incubated for 48 hours at 37° C., 5% CO2. After 48 hours, the supernatants were harvested and tested by a multi-plex cytometric bead array (CBA) assay for the following cytokines/chemokines: IL-2, IL-3, IL-5, IL-10, IL-13, IL-15, IL-17a, GM-CSF, G-SCF, IFN-γ, TNF-α and RANTES. The CBA plates were analyzed on the Luminex IS100 instrument. […] All 96-well plates were pre-coated with 3 μg/mL anti-human CD3 antibody in 100 μL 1×PBS for 4 hours at 37° C. The plates were washed 3 times with RPMI-1640 Complete Media prior to the T cell assay. The T cells were then plated in anti-CD3-pre-coated plates at a density of 2.5×10^5 cells/well in 180 μL RPMI-1640 Complete Media. The cells were treated with 20 μL 10× titrated Celgene compounds at 10, 1, 0.1, 0.01, 0.001, 0.0001, and 0.00001 μM in duplicate. The final DMSO concentrations were 0.25%. The plates were incubated for 48 hours at 37° C., 5% CO2. After 48 hours, the supernatants were harvested and tested by a multiplex cytometric bead array (CBA) assay for the following cytokines/chemokines: IL-2, IL-3, IL-5, IL-10, IL-13, IL-15, IL-17A, GM-CSF, G-CSF, IFN-γ, TNF-α, and RANTES. The CBA plates were analyzed on the Luminex IS100 instrument.

HUVEC = HUVEC proliferation; assay type: cell-based, human
blood vessel growth = experiment: Mouse Matrigel angiogenesis assay; assay type: in vivo; settings: 30 mpk
MDA-MB-453 = experiment: Solid tumor cell colony formation; assay type: cell-based; settings: Homo sapiens
[6] = cynomolgus monkey, plasma, 3 mg/kg, 3 mpk po

Cc1nc2cccc(N)c2c(=O)n1C1CCC(=O)NC1=O (stereo not shown) [compound of Formula I, 3-(5-amino-2-methyl-4-oxo-4H-quinazolin-3-yl)-piperidine-2,6-dione]
IC50 1053: 2.1 µM
IC50 1051: 2.97 µM
IC50 (D1): 0.309 µM
IC50 (H929): 0.154 µM
IC50 1052: 4.24 µM
IC50 1054: 6.59 µM
EC50 (B cell): 0.015 µM
inhibition at 10 µM (U251): -6%
activity at 0.1 µM ([1]; read-out: IL-10 production, mean percent of control): 480%
activity at 0.1 µM ([1]; read-out: MCP-1 production, mean percent of control): 236%
activity at 0.1 µM ([1]; read-out: RANTES production, mean percent of control): 131%
IC50 ([1]; read-out: IL-8 production IC50): > 10 µM
IC50 ([1]; read-out: MIP-1α production IC50): 0.3 µM
IC50 ([1]; read-out: MIP-1β production IC50): > 10 µM
IC50 (SF-295): 0.24 µM
AUC (Oral pharmacokinetics [2]; in vivo, 3 mg/kg, 3 mpk po): 7100 ng·h/mL and 25 µM·h
Cmax (Oral pharmacokinetics [2]; in vivo, 3 mg/kg, 3 mpk po): 2900 ng/mL and 10 µM
Exposures (AUC(0-t)) versus dose (Oral pharmacokinetics [2]; up to 30 mg/kg): increased in a dose proportional manner
inhibition at 10 µM (SF268): 0.6%
proliferation of CRBN-sensitive MM cell lines U266, 100-1 and 1K-2 [3]: inhibit the proliferation
half-life [4]: 3.83 h
U87 tumor growth (U87 GB xenograft): significantly inhibited; also recorded: inhibits
F (Oral pharmacokinetics [5]; 3 mpk po): 32%
AUC (Oral pharmacokinetics [5]; [6]): 12000 ng·h/mL and 43 µM·h
Cmax (Oral pharmacokinetics [5]; [6]): 3300 ng/mL and 11 µM
half-life (Oral pharmacokinetics [5]; cynomolgus monkey, plasma, oral, 3 mpk): 5.8 h
clearance (Oral pharmacokinetics [5]; cynomolgus monkey, plasma, read-out: CLp): 1.2 mL/min/kg
IC50 (TNFα): 0.164 µM
inhibition at 10 µM (Colo-205): 17%
inhibition at 10 µM (PC-3): 14.8%
IL-5 production increase (T cells; 0.01 μM): 3 fold
IL-5 production increase (T cells; 0.1 μM): 4 fold
production of IL-2, IL-3, IL-5, IL-10, IL-15, GM-CSF, INF-γ, RANTES, and TNF-α (T cells; 0.01 to 10 μM): enhanced
IL-10 production (T cells; 1 and 10 μM): inhibited
EC50 (T cells; Homo sapiens, T-cell, read-out: T cell IL-2 EC50): 0.012 to 0.014 µM
IL-10 production enhancement (T cells; low concentrations (≦0.01 μM)): 2 fold
HUVEC proliferation (HUVEC): did not inhibit
growth factor-induced HUVEC proliferation (HUVEC; growth factor-induced): either enhanced or did not inhibit
blood vessel growth (blood vessel growth): significantly inhibited
inhibition at 10 µM (MDA-MB-453): -7%
